The values that follow come from patent publication US20090061515A1, “Methods of inhibiting or suppressing cellular proliferation” (priority 2007, published 2009).

What all share (assay type): cell-based
Experiment [1] relates to human Glioblastoma/Astrocytoma U87 cells. As to the kind of experiment: Cell migration after 48 hours exposure, U87 (Example 6). To be noted: U87, 10 mg/ml and 1 mg/ml. Here is the method: (§1) Evaluation of the effects of 5,6-dihydroxy-hexan-2-one on human umbilical vein endothelial cells (HUVEC) and Glioblastoma/Astrocytoma cells U87 cellular proliferation and migration during 120 hours following 48 hour exposure to 5,6-dihydroxy-hexan-2-one at concentration of 10 mg/ml, 1 mg/ml, 100 micrograms/ml. Controls were cells not exposed to the agent.
(§2) In order to further explore the effects of this compound, experiments to evaluate the dose-effect response on the antiproliferative effect and on cell migration were conducted on two cell lines, human umbilical vein endothelial cells (HUVEC) and Glioblastoma/Astrocytoma cells (U87), over 120 hours after 48 hours of exposure to the compound.
FIGS. 24(a)-(l) are pictures that visually display the migration over time of human Glioblastoma/Astrocytoma U87 cells after 48 hours exposure to various concentrations of 5,6-dihydroxy-hexan-2-one. Specifically, FIGS. 24(a)-(d) represent the control, FIGS. 24(e)-(h) represent 10 mg/ml, and FIGS. 24(i)-(l) represent 1 mg/ml 5,6-dihydroxy-hexan-2-one. FIGS. 24(a), (e), and (i) represent migration after 2 hours; FIGS. 24(b), (f), and (j) represent migration after 14 hours; FIGS. 24(c), (g), and (k) represent migration after 20 hours; and FIGS. […], (h), and (l) represent migration after 48 hours.

The test system of experiment [2] is human umbilical vein endothelial cells (HUVEC). As to the kind of experiment: Cell migration after 48 hours exposure, HUVEC (Example 6). To be noted: 10 mg/ml and 1 mg/ml. The method, then:
as §1, §2
FIGS. 23(a)-(l) are pictures that visually display the migration over time of human umbilical vein endothelial cells (HUVEC) after 48 hours exposure to various concentrations of 5,6-dihydroxy-hexan-2-one. Specifically, FIGS. 23(a)-(d) represent the control, FIGS. 23(e)-(h) represent 10 mg/ml, and FIGS. 23(i)-(l) represent 1 mg/ml 5,6-dihydroxy-hexan-2-one. FIGS. 23(a), (e), and (i) represent migration after 2 hours; FIGS. 23(b), (f), and (j) represent migration after 14 hours; FIGS. 23(c), (g), and (k) represent migration after 20 hours; and FIGS. […], (h), and (l) represent migration after 48 hours.

In experiment [3] the test system is Normal Human Dermal Fibroblasts (NHDF). Nature of the experiment: Cell growth / cell counts of NHDF during exposure and 96 hours after removal (Example 4). To be noted: for Cell Counts after exposure and additional 96 hours with compound removed: NHDF re-seeded at 45,000 cells/well; for cell growth during exposure, in words: 24 and 48 hours of exposure. The method, then: Examination of the cell growth effects upon 24 hour and 48 hour exposure of Normal Human Dermal Fibroblasts (NHDF) to 5,6-dihydroxy-hexan-2-one. After the 24 hour or 48 hour exposures, the 5,6-dihydroxy-hexan-2-one was removed and the cells were allowed to grow for an additional 96 hours, then evaluated for growth.
The assay used was a luminescent cell viability assay available under the trade designation CellTiter-Glo from Promega Corporation (Madison, Wis.). This assay determines the number of viable cells present based on the amount of adenosine triphosphate (ATP) present from the cell cytoplasm. The concentration of ATP present is proportional to the measured amount of a luminescent signal. […] The Normal Human Dermal Fibroblasts were available from Clonetics Corporation (San Diego, Calif.).
The 5,6-dihydroxy-hexan-2-one (1.2 grams) was dissolved in 12 ml of phosphate buffered saline and was filter sterilized through a 0.22 micrometer syringe filter prior to use. The 5,6-dihydroxy-hexan-2-one was further diluted to 10^−1, 10^−2, and 10^−3 using serial dilutions for the evaluation.
NHDF were seeded at 45,000 cells/well in four 24 well plates (two testing cell growth and two to re-seed after 24 and 48 hours without 5,6-dihydroxy-hexan-2-one). 24 hours after seeding, 5,6-dihydroxy-hexan-2-one was added to the cell culture plates (2 ml/well) at a concentration of 10^−1, 10^−2, and 10^−3. Assay plates were pulled for cell growth analysis at 24 and 48 hours after addition of the chemical compound. Samples were analyzed on the above-described assay according to a published method. The other two assay plates were washed and re-seeded at 45,000 cells/well at 24 and 48 hour time points without the presence of 5,6-dihydroxy-hexan-2-one. Both plates were grown for an additional 96 hours before a cell count was taken.
To determine proliferation potential post-exposure, cells were reseeded after exposure to 5,6-dihydroxy-hexan-2-one as follows. Additional groups of cells exposed to 5,6-dihydroxy-hexan-2-one for 24 and 48 hours were then washed thoroughly to remove 5,6-dihydroxy-hexan-2-one and harvested from the culture substrate. Those cells were then plated out at the same density as before, but without exposure to 5,6-dihydroxy-hexan-2-one. These two groups were supplied with fresh media and allowed to grow for 96 additional hours. Visual representation of the 10^−1 and 10^−2 groups can be seen in FIG. 15 (10^−1, re-seeded without 5,6-dihydroxy-hexan-2-one for 96 hours) and FIG. 16 (10^−2, re-seeded without 5,6-dihydroxy-hexan-2-one for 96 hours).

As for `CC(=O)CCC(O)CO` (centres unmarked) [5,6-dihydroxy-hexan-2-one], the cell migration entry in experiment [1] and in experiment [2] was “did not shown differences” each time. The “Cell Counts after exposure and additional 96 hours with compound removed” value in experiment [3] (0.1 mg/ml, 24 Hour Group) is listed as 200,000 cells; in experiment [3] (0.1 mg/ml, 48 Hour Group) it was 207,500 cells; in experiment [3] (1 mg/ml, 24 Hour Group), 172,000 cells; in experiment [3] (1 mg/ml, 48 Hour Group), 165,000 cells; in experiment [3] (10 mg/ml, 24 Hour Group), 55,000 cells; in experiment [3] (10 mg/ml, 48 Hour Group) it was 65,000 cells. Further, the “Cell Counts after exposure” value was 180,000 cells in experiment [3] (NHDF, 0.1 mg/ml, 24 Hour Group); 305,000 cells in experiment [3] (NHDF, 0.1 mg/ml, 48 Hour Group); 160,000 cells in experiment [3] (NHDF, 1 mg/ml, 24 Hour Group); 150,000 cells in experiment [3] (NHDF, 1 mg/ml, 48 Hour Group); 65,000 cells in experiment [3] (NHDF, 10 mg/ml, 24 Hour Group); 80,000 cells in experiment [3] (NHDF, 10 mg/ml, 48 Hour Group). The “cell growth during exposure, in words” value in experiment [3] (NHDF, 10^-1 concentration group) is “only a minimal amount of growth”; in experiment [3] (NHDF, 10^-2 concentration group) it was “reduced from the control”; in experiment [3] (NHDF, 10^-3 concentration group) it was “continued to grow without problems”. Besides, the “cell growth after 96 hours without compound, in words” value is listed as “significant inhibition of cell growth” in experiment [3] (NHDF, 10^-1 group, after withdrawal) and “slight reduction of cell growth” in experiment [3] (NHDF, 10^-2 group, after withdrawal). In addition, the “cell growth after withdrawal, in words” value in experiment [3] (NHDF, 10^-3 concentration (lowest tested), after withdrawal) was “behave similar to controls”.
